Columns and labels:
SW620 cells (KRAS G12V) = experiment: Cell-based pERK HTRF assay in SW620 cell (Biological Example 4); conditions: Homo sapiens, SW-620, SW620 (KRAS G12V) cells
In short: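 This assay measures inhibition of ERK phosphorylation downstream of KRAS G12V in intact SW620 cells. Compounds are applied for 4 h over nine half-log concentrations starting at 1 μM, and pERK is quantified by HTRF.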

[1] = biological target: T1, Avi-KRAS G12V (2-169) GTP/RAF1 RBD-3xFLAG (51-131) (Homo sapiens, UniProt P01116, G12V); experiment: Raf1-KRAS G12V-GTP disruption HTRF assay (Biological Example 3); type: binding; conditions: KRAS G12V, GTP-loaded
T1 construct: Avi-KRAS G12V (2-169)
T1 sequence (P01116 2-169 isoform P01116-2 G12V): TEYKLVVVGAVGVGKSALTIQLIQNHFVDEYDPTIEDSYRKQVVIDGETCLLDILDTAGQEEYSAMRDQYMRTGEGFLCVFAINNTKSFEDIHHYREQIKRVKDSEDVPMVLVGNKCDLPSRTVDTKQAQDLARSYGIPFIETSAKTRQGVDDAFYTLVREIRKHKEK
Description: (§1) Biological Example 3: Disrupting RAS-Effector Binding HTRF Assay
(§2) A protein:protein interaction (PPI) Homogeneous Time Resolved Fluorescence (HTRF) assay was used to determine the effectiveness of compounds in disrupting KRAS protein and effector (RAF1) binding.
(§3) The HTRF assay used the following reagents and proteins: (i) 50 nM Avi-KRAS G12D (2-169) GTP/RAF1 RBD-3xFLAG (51-131): (ii) 50 nM Avi-KRAS G12C (2-169) GTP/RAF1 RBD-3xFLAG (51-131): (iii) 50 nM Avi-KRAS G12V (2-169) GTP/RAF1 RBD-3xFLAG (51-131); (iv) 50 nM Avi-KRAS WT (2-169) GTP/RAF1 RBD-3xFLAG (51-131); and (v) 75 nM 3xFLAG-RAF1 RBD (51-131)-Avi. The assay buffer included: 50 mM Tris pH 7.5 (Invitrogen, 15567-027), 100 mM NaCl (Sigma, S5150-IL), 5 mM MgCl2 (Sigma, 63069), 0.1% BSA (Sigma, A7030), 0.01% Tween 20 (Sigma, P7949), 10% DMSO (Cell Signaling, 12611). The bead buffer included: 50 mM Tris pH 7.5 (Invitrogen, 15567-027), 0.01% Tween 20 (Sigma, P7949). An assay volume of 20 μL was used in a 384 well plate-low volume format. Compound titration: 30-0.005 μM, 3x dilution series.
(§4) The HTRF assay employed the following protocol:
(§5) Compounds were dispensed in assay plate (384-well, Grenier Bio-One #784075) using Echo (model 555) with dose response settings: 200 nL final volume, titration from 30 μM as a 10-point dilution series. Proteins and HTRF reagents were mixed and dispensed onto plates, 20 μL per well, and then incubated for 1 h at room temperature, with 700 rpm shaking.
(§6) Plates were analyzed on an Envision plate reader using the following setting: Excitation 320 nm, Bandwidth 75 nm; Emission 615 nm, Bandwidth 85 nm; Gain 100%; Flashes 100; Lag 60 μs. Data was reported as percentage of activity, with DMSO as 100%. Data was plotted and analyzed using Prism 8.
(§7) The biochemical Raf1-KRAS G12D/G12V/G12C/WT-GTP disruption assay IC50 of selected compounds described herein are shown in Table 12.

GP2d cells (KRAS G12D) = experiment: Cell-based pERK HTRF assay in GP2d cell (Biological Example 2); conditions: GP2d, GP2d (KRAS G12D) cells
In short: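 60 min compound, 0.25% DMSO, 9-pt half-log curve from 1 μM or 100 nM; DMEM/10% FBS.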

[2] = biological target: T2, Avi-KRAS G12D (2-169) GTP/RAF1 RBD-3xFLAG (51-131) (Homo sapiens, UniProt P01116, G12D); experiment: Raf1-KRAS G12D-GTP disruption HTRF assay (Biological Example 3); type: binding; conditions: KRAS G12D, GTP-loaded
T2 construct: Avi-KRAS G12D (2-169)
T2 sequence (P01116 2-169 isoform P01116-2 G12D): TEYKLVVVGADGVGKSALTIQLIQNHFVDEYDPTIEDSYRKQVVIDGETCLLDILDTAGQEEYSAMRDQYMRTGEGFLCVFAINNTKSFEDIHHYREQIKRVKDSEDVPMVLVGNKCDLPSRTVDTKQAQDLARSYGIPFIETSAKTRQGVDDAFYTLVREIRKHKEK
Description: as §1, §2, §3, §4, §5, §6, §7

[3] = biological target: T3, Avi-KRAS G12C (2-169) GTP/RAF1 RBD-3xFLAG (51-131) (Homo sapiens, UniProt P01116, G12C); experiment: Raf1-KRAS G12C-GTP disruption HTRF assay (Biological Example 3); type: binding; conditions: KRAS G12C, GTP-loaded
T3 construct: Avi-KRAS G12C (2-169)
T3 sequence (P01116 2-169 isoform P01116-2 G12C): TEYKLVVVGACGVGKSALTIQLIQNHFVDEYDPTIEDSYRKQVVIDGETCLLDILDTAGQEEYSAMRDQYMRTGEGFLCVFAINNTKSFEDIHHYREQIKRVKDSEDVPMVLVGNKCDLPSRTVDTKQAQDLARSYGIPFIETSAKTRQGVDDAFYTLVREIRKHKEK
Description: as §1, §2, §3, §4, §5, §6, §7

[4] = biological target: T4, Avi-KRAS WT (2-169) GTP/RAF1 RBD-3xFLAG (51-131) (Homo sapiens, UniProt P01116); experiment: Raf1-KRAS WT-GTP disruption HTRF assay (Biological Example 3); type: binding; conditions: KRAS WT, GTP-loaded
T4 construct: Avi-KRAS WT (2-169)
T4 sequence (P01116 2-169 isoform P01116-2): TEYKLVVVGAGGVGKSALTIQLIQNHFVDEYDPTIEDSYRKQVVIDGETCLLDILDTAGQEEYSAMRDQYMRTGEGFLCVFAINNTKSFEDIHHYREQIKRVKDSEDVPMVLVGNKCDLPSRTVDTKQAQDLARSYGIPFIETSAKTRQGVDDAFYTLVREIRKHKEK
Description: as §1, §2, §3, §4, §5, §6, §7

Row | SMILES | IC50 (SW620 cells (KRAS G12V)) | IC50 [1] | IC50 (GP2d cells (KRAS G12D)) | IC50 [2] | IC50 [3] | IC50 [4]
1 | CN(Cc1cnoc1)c1nc(OC[C@@]23CCCN2C[C@H](F)C3)nc2c(F)c(-c3ccc(F)c4sc(N)c(C#N)c34)c(C(F)(F)F)cc12 (atropisomer, axis not shown) [Compound 935] | < 100 nM | 100 to 1000 nM | < 100 nM | 100 to 1000 nM | 100 to 1000 nM | 100 to 1000 nM
2 | COC(=O)N1CC[C@H](N(CCF)c2nc(OC[C@@]34CCCN3C[C@H](F)C4)nc3c(F)c(-c4ccc(F)c5sc(N)c(C#N)c45)c(C(F)(F)F)cc23)C1 (atropisomer, axis not shown) [Compound 829] | < 100 nM | 100 to 1000 nM | < 100 nM | 100 to 1000 nM | 100 to 1000 nM | 1000 to 10000 nM
3 | CCN(c1nc(OC[C@@]23CCCN2C[C@H](F)C3)nc2c(F)c(-c3ccc(F)c4sc(N)c(C#N)c34)c(C(F)(F)F)cc12)[C@H]1CCN(C(=O)N2CC(F)(F)C2)C1 (atropisomer, axis not shown) [Compound 831] | < 100 nM | 100 to 1000 nM | < 100 nM | 100 to 1000 nM | 100 to 1000 nM | 100 to 1000 nM
4 | CCN(c1nc(OC[C@@]23CCCN2C[C@H](F)C3)nc2c(F)c(-c3ccc(F)c4sc(N)c(C#N)c34)c(C(F)(F)F)cc12)[C@H]1CCN(C(=O)c2ccc(C)s2)C1 (atropisomer, axis not shown) [Compound 911] | < 100 nM | 100 to 1000 nM | < 100 nM | 100 to 1000 nM | 100 to 1000 nM | 1000 to 10000 nM
5 | CO[C@H](C)C(=O)N1CC[C@H](N(c2nc(OC[C@@]34CCCN3C[C@H](F)C4)nc3c(F)c(-c4ccc(F)c5sc(N)c(C#N)c45)c(C(F)(F)F)cc23)C2CC2)C1 (atropisomer, axis not shown) [Compound 826] | < 100 nM | 1000 to 10000 nM | < 100 nM | 100 to 1000 nM | 1000 to 10000 nM | 1000 to 10000 nM
6 | CCN(c1nc(OC[C@@]23CCCN2C[C@H](F)C3)nc2c(F)c(-c3ccc(F)c4sc(N)c(C#N)c34)c(C(F)(F)F)cc12)[C@@H]1CCN(c2ccccn2)C1 [Compound 945] | < 100 nM | > 10000 nM | < 100 nM | 1000 to 10000 nM | > 10000 nM | > 10000 nM
7 | CCN(c1nc(OC[C@@]23CCCN2C[C@H](F)C3)nc2c(F)c(-c3ccc(F)c4sc(N)c(C#N)c34)c(C(F)(F)F)cc12)[C@H]1CCN(C(=O)N2CC3(CCO3)C2)C1 (atropisomer, axis not shown) [Compound 851] | < 100 nM | 100 to 1000 nM | < 100 nM | 100 to 1000 nM | 100 to 1000 nM | 100 to 1000 nM
8 | C[C@@H](c1cccnc1)N(C)c1nc(OC[C@@]23CCCN2C[C@H](F)C3)nc2c(F)c(-c3ccc(F)c4sc(N)c(C#N)c34)c(C(F)(F)F)cc12 [Compound 969] | < 100 nM | 1000 to 10000 nM | < 100 nM | 1000 to 10000 nM | 1000 to 10000 nM | 1000 to 10000 nM
9 | CCN(c1nc(OC[C@@]23CCCN2C[C@H](F)C3)nc2c(F)c(-c3ccc(F)c4sc(N)c(C#N)c34)c(C(F)(F)F)cc12)[C@H]1C[C@@H]2COCC(=O)N2C1 (atropisomer, axis not shown) [Compound 878] | < 100 nM | 100 to 1000 nM | < 100 nM | 100 to 1000 nM | 100 to 1000 nM | 100 to 1000 nM

More lines, now with the values ahead:

Row | IC50 (SW620 cells (KRAS G12V)) | IC50 [1] | IC50 (GP2d cells (KRAS G12D)) | IC50 [2] | IC50 [3] | IC50 [4] | SMILES
10 | < 100 nM | ≤ 100 nM | < 100 nM | ≤ 100 nM | ≤ 100 nM | 100 to 1000 nM | CCN(c1nc(OC[C@@]23CCCN2C[C@H](F)C3)nc2c(F)c(-c3ccc(F)c4sc(N)c(C#N)c34)c(C(F)(F)F)cc12)[C@H]1C[C@H](C)N(C(=O)[C@@H]2CCO2)C1 (atropisomer, axis not shown) [Compound 922]
11 | < 100 nM | 100 to 1000 nM | < 100 nM | 100 to 1000 nM | 100 to 1000 nM | 100 to 1000 nM | CCN(c1nc(OC[C@@]23CCCN2C[C@H](F)C3)nc2c(F)c(-c3ccc(F)c4sc(N)c(C#N)c34)c(C(F)(F)F)cc12)[C@H]1CCN(C(=O)O[C@H]2CCCOC2)C1 (atropisomer, axis not shown) [Compound 822]
12 | < 100 nM | 1000 to 10000 nM | < 100 nM | 1000 to 10000 nM | 1000 to 10000 nM | 1000 to 10000 nM | CCN(c1nc(OC[C@@]23CCCN2C[C@H](F)C3)nc2c(F)c(-c3ccc(F)c4sc(N)c(C#N)c34)c(C(F)(F)F)cc12)[C@@H]1CC[C@H](C(=O)N(C)C)C1 [Compound 959]
13 | < 100 nM | 100 to 1000 nM | < 100 nM | 100 to 1000 nM | 100 to 1000 nM | 100 to 1000 nM | CCN(c1nc(OC[C@@]23CCCN2C[C@H](F)C3)nc2c(F)c(-c3ccc(F)c4sc(N)c(C#N)c34)c(C(F)(F)F)cc12)[C@H]1C[C@H](C)N(C(=O)C2CC(OC)C2)C1 (stereo partly drawn) [Compound 928]
14 | < 100 nM | 100 to 1000 nM | < 100 nM | 100 to 1000 nM | 1000 to 10000 nM | 100 to 1000 nM | CCN(c1nc(OC[C@@]23CCCN2C[C@H](F)C3)nc2c(F)c(-c3ccc(F)c4sc(N)c(C#N)c34)c(C(F)(F)F)cc12)[C@H]1CCN(C(=O)OC)[C@@H]1COC (atropisomer, axis not shown) [Compound 923]
15 | < 100 nM | 100 to 1000 nM | < 100 nM | 100 to 1000 nM | 100 to 1000 nM | 100 to 1000 nM | CCN(c1nc(OC[C@@]23CCCN2C[C@H](F)C3)nc2c(F)c(-c3ccc(F)c4sc(N)c(C#N)c34)c(C(F)(F)F)cc12)[C@H]1CCN(C(=O)O[C@@H]2CCCOC2)C1 (atropisomer, axis not shown) [Compound 796]
16 | 100 to 1000 nM | 1000 to 10000 nM | < 100 nM | 100 to 1000 nM | 1000 to 10000 nM | 1000 to 10000 nM | CCN(c1nc(OC[C@@]23CCCN2C[C@H](F)C3)nc2c(F)c(-c3ccc(F)c4sc(N)c(C#N)c34)c(C(F)(F)F)cc12)[C@H]1CCN(C(=O)[C@H]2CCO2)[C@H]1C (atropisomer, axis not shown) [Compound 868]
17 | < 100 nM | 100 to 1000 nM | < 100 nM | 100 to 1000 nM | 100 to 1000 nM | 100 to 1000 nM | CCN(c1nc(OC[C@@]23CCCN2C[C@H](F)C3)nc2c(F)c(-c3ccc(F)c4sc(N)c(C#N)c34)c(C(F)(F)F)cc12)[C@H]1CCN(C(=O)c2coc(C)n2)[C@@H]1C (atropisomer, axis not shown) [Compound 899]
18 | < 100 nM | 1000 to 10000 nM | < 100 nM | 1000 to 10000 nM | 1000 to 10000 nM | 1000 to 10000 nM | CCN(c1nc(OC[C@@]23CCCN2C[C@H](F)C3)nc2c(F)c(-c3ccc(F)c4sc(N)c(C#N)c34)c(C(F)(F)F)cc12)[C@@H]1CC[C@@H](C(=O)N(C)C)C1 (atropisomer, axis not shown) [Compound 827]
